Laboratory results as given in patent publication US20250114338A1, “TETRAHYDRO-PYRIDO[3,4-b]INDOLE ESTROGEN RECEPTOR MODULATORS AND USES THEREOF” (Genentech, Inc., priority 2014, published 2025).

Test system: ER-alpha MCF7
Test: ER-alpha MCF7 HCS EC50; stated as measured by in vitro cell proliferation assays of Examples 902 and 903
Type: cell-based
Conditions: Homo sapiens, MCF7, MCF7 cells
From the text: The CellTiter-Glo® Luminescent Cell Viability Assay is a homogeneous method to determine the number of viable cells in culture based on quantitation of the ATP present, which signals the presence of metabolically active cells. The CellTiter-Glo® Assay is designed for use with multiwell plate formats, making it ideal for automated high-throughput screening (HTS), cell proliferation and cytotoxicity assays. The homogeneous assay procedure involves adding a single reagent (CellTiter-Glo® Reagent) directly to cells cultured in serum-supplemented medium. Cell washing, removal of medium or multiple pipetting steps are not required. The Cell Titer-Glo® Luminescent Cell Viability Assay, including reagents and protocol are commercially available (Promega Corp., Madison, WI, Technical Bulletin TB288).
The assay assesses the ability of compounds to enter cells and inhibit cell proliferation. The assay principle is based on the determination of the number of viable cells present by quantitating the ATP present in a homogenous assay where addition of the Cell Titer-Glo® reagent results in cell lysis and generation of a luminescent signal through the luciferase reaction. The luminescent signal is proportional to the amount of ATP present.
Cell Culture Medium: RPMI or DMEM high glucose, 10% Fetal Bovine Serum, 2 mM L-Glutamine, P/S. Incubate O/N (overnight) at 37° C., 5% CO2.
Day 2—Add Drug to Cells, Compound Dilution, DMSO Plates (serial 1:2 for 9 points). Add 20 μl of compound at 10 mM in the 2nd column of 96 well plate. […] Add 147 μl of Media into all wells. Transfer 3 μl of DMSO+ compound from each well in the DMSO Plate to each corresponding well on Media Plate using Rapidplate® (Caliper, a Perkin-Elmer Co.). For 2 drug combination studies, transfer one drug 1.5 μl of DMSO+ compound from each well in the DMSO Plate to each corresponding well on Media Plate using Rapidplate. Then, transfer another drug 1.5 μl to the medium plate.
Drug Addition to Cells, Cell Plate (1:10 dilution): Add 6 μl of media+ compound directly to cells (54 μl of media on the cells already). Incubate 3 days at 37° C., 5% CO2 in an incubator that will not be opened often.
Day 5—Develop Plates, Thaw Cell Titer Glo Buffer at room temperature: Remove Cell Plates from 37° C. and equilibrate to room temperature for about 30 minutes. Add Cell Titer-Glo® Buffer to Cell Titer-Glo® Substrate (bottle to bottle). Add 30 μl Cell Titer-Glo® Reagent (Promega cat. #G7572) to each well of cells. Place on plate shaker for about 30 minutes. Read luminescence on Analyst HT Plate Reader (half second per well).
Cell viability assays and combination assays: Cells were seeded at 1000-2000 cells/well in 384-well plates for 16 h. On day two, nine serial 1:2 compound dilutions were made in DMSO in a 96 well plate. The compounds were further diluted into growth media using a Rapidplate® robot (Zymark Corp., Hopkinton, MA). The diluted compounds were then added to quadruplicate wells in 384-well cell plates and incubated at 37° C. and 5% CO2. After 4 days, relative numbers of viable cells were measured by luminescence using Cell Titer-Glo® (Promega) according to the manufacturer's instructions and read on a Wallac Multilabel Reader® (PerkinElmer, Foster City). EC50 values were calculated using Prism® 4.0 software (GraphPad, San Diego).
5 ul of each individual compound concentration and each control compound was transferred to the cell plate. Fulvestrant was added to control wells at a final concentration of 100 nM). DMSO was added to negative control wells (0.2% v/v).

Row | Structure (SMILES) | EC50 (Table 2) [nM] | EC50 (Table 1) [nM]
1 | C[C@@H]1Cc2c([nH]c3ccccc23)[C@@H](c2c(F)cc(OCCN3CC(CF)C3)cc2F)N1C(=O)C1CC(F)C1 (stereo in doubt) [Example 203, [1-[2,6-difluoro-4-[2-[3-(fluoromethyl)azetidin-1-yl]ethoxy]phenyl]-3-methyl-1,3,4,9-tetrahydropyrido[3,4-b]indol-2-yl]-(3-fluorocyclobutyl)methanone] | 4 | 
2 | CC(CN1[C@H](c2c(F)cc(OC3CN(CCCF)C3)cc2F)c2[nH]c3ccccc3c2C[C@H]1C)C(=O)O (stereo in doubt) [Example 350, 3-[1-[2,6-difluoro-4-[1-(3-fluoropropyl)azetidin-3-yl]oxy-phenyl]-3-methyl-1,3,4,9-tetrahydropyrido[3,4-b]indol-2-yl]-2-methyl-propanoic acid] | 14 | 
3 | C[C@@H]1Cc2c([nH]c3ccccc23)[C@@H](c2ccc(OCCN3CC(CF)C3)nc2)N1CC(C)(C)F [Example 111, (1R,3R)-2-(2-fluoro-2-methylpropyl)-1-(6-(2-(3-(fluoromethyl)azetidin-1-yl)ethoxy)pyridin-3-yl)-3-methyl-2,3,4,9-tetrahydro-1H-pyrido[3,4-b]indole] |  | 0.898
4 | C[C@@H]1Cc2c([nH]c3ccccc23)[C@@H](c2ncc(OCCN3CC(CF)C3)cc2F)N1CC(C)(C)F [Example 112, (1S,3R)-2-(2-fluoro-2-methylpropyl)-1-(3-fluoro-5-(2-(3-(fluoromethyl)azetidin-1-yl)ethoxy)pyridin-2-yl)-3-methyl-2,3,4,9-tetrahydro-1H-pyrido[3,4-b]indole] |  | 0.092
5 | C[C@@H]1Cc2c([nH]c3ccccc23)[C@@H](c2c(F)cc(OCCN3CC(CF)C3)cc2F)N1CC1(C)COC1 [Example 114, (1R,3R)-1-(2,6-difluoro-4-(2-(3-(fluoromethyl)azetidin-1-yl)ethoxy)phenyl)-3-methyl-2-((3-methyloxetan-3-yl)methyl)-2,3,4,9-tetrahydro-1H-pyrido[3,4-b]indole] |  | 0.715
6 | C[C@@H]1Cc2c([nH]c3ccccc23)[C@@H](c2c(F)cc(OCCN3CC(CF)C3)cc2F)N1CC(C)(C)O [Example 127, 1-[(1R,3R)-1-[2,6-difluoro-4-[2-[3-(fluoromethyl)azetidin-1-yl]ethoxy]phenyl]-3-methyl-1,3,4,9-tetrahydropyrido[3,4-b]indol-2-yl]-2-methyl-propan-2-ol] | 0.641 | 
7 | CC(C)(F)CN1[C@@H](CO)Cc2c([nH]c3ccccc23)[C@@H]1c1c(F)cc(OCCN2CC(CF)C2)cc1F [Example 131, ((1S,3R)-1-(2,6-difluoro-4-(2-(3-(fluoromethyl)azetidin-1-yl)ethoxy)phenyl)-2-(2-fluoro-2-methylpropyl)-2,3,4,9-tetrahydro-1H-pyrido[3,4-b]indol-3-yl)methanol] | 0.146 | 
8 | C[C@@H]1Cc2c([nH]c3ccccc23)[C@@H](c2c(F)cc(OC3CNC3)cc2F)N1CC(C)(C)F [Example 132, (1R,3R)-1-[4-(azetidin-3-yloxy)-2,6-difluoro-phenyl]-2-(2-fluoro-2-methyl-propyl)-3-methyl-1,3,4,9-tetrahydropyrido[3,4-b]indole] | 0.31 | 
9 | C[C@@H]1Cc2c([nH]c3ccccc23)[C@@H](c2ccc(OCCN3CC(CF)C3)cc2F)N1CC(C)(C)F [Example 133, (1R,3R)-2-(2-fluoro-2-methylpropyl)-1-(2-fluoro-4-(2-(3-(fluoromethyl)azetidin-1-yl)ethoxy)phenyl)-3-methyl-2,3,4,9-tetrahydro-1H-pyrido[3,4-b]indole] | 0.0562 | 
10 | C[C@@H]1Cc2c([nH]c3ccccc23)[C@@H](c2c(F)cc(OCCN3CC(CF)C3)cc2F)N1C1CCC1 [Example 134, (1R,3R)-2-cyclobutyl-1-[2,6-difluoro-4-[2-[3-(fluoromethyl)azetidin-1-yl]ethoxy]phenyl]-3-methyl-1,3,4,9-tetrahydropyrido[3,4-b]indole] | 0.542 | 
11 | CC(C)(F)CN1[C@H](CF)Cc2c([nH]c3ccccc23)[C@H]1c1c(F)cc(OCCN2CC(CF)C2)cc1F [Example 135, (1R,3S)-1-[2,6-difluoro-4-[2-[3-(fluoromethyl)azetidin-1-yl]ethoxy]phenyl]-3-(fluoromethyl)-2-(2-fluoro-2-methyl-propyl)-1,3,4,9-tetrahydropyrido[3,4-b]indole] | 0.0973 | 
12 | C[C@@H]1Cc2c([nH]c3ccccc23)[C@@H](c2c(F)cc(OCCN3CC(CF)C3)cc2F)N1CC1(F)COC1 [Example 136, (1R,3R)-1-[2,6-difluoro-4-[2-[3-(fluoromethyl)azetidin-1-yl]ethoxy]phenyl]-2-[(3-fluorooxetan-3-yl)methyl]-3-methyl-1,3,4,9-tetrahydropyrido[3,4-b]indole] | 0.114 | 
13 | C[C@@H]1Cc2c([nH]c3ccccc23)[C@@H](c2c(F)cc(OCCN3CC(CF)C3)cc2F)N1C(=O)C1CCCCC1 [Example 137, cyclohexyl((1R,3R)-1-(2,6-difluoro-4-(2-(3-(fluoromethyl)azetidin-1-yl)ethoxy)phenyl)-3-methyl-3,4-dihydro-1H-pyrido[3,4-b]indol-2(9H)-yl)methanone] | 28 | 
14 | C[C@@H]1Cc2c([nH]c3ccccc23)[C@@H](c2c(F)cc(OCCN3CC(CF)C3)cc2F)N1C(=O)C(C)(C)C [Example 138, 1-[(1R,3R)-1-[2,6-difluoro-4-[2-[3-(fluoromethyl)azetidin-1-yl]ethoxy]phenyl]-3-methyl-1,3,4,9-tetrahydropyrido[3,4-b]indol-2-yl]-2,2-dimethyl-propan-1-one] | 0.491 | 
15 | C[C@@H]1Cc2c([nH]c3ccccc23)[C@@H](c2c(F)cc(OCCN3CC(CF)C3)cc2F)N1C(=O)C1CC1 [Example 139, cyclopropyl((1R,3R)-1-(2,6-difluoro-4-(2-(3-(fluoromethyl)azetidin-1-yl)ethoxy)phenyl)-3-methyl-3,4-dihydro-1H-pyrido[3,4-b]indol-2(9H)-yl)methanone] | 2.48 | 
16 | CC1CN(CCOc2cc(F)c([C@@H]3c4[nH]c5ccccc5c4C[C@@H](C)N3CC(C)(C)F)c(F)c2)C1 [Example 140, (1R,3R)-1-[2,6-difluoro-4-[2-(3-methylazetidin-1-yl)ethoxy]phenyl]-2-(2-fluoro-2-methyl-propyl)-3-methyl-1,3,4,9-tetrahydropyrido[3,4-b]indole] | 0.13 | 
17 | C[C@@H]1CCN(CCOc2cc(F)c([C@@H]3c4[nH]c5ccccc5c4C[C@@H](C)N3CC(C)(C)F)c(F)c2)C1 [Example 141, (1R,3R)-1-(2,6-difluoro-4-(2-((R)-3-methylpyrrolidin-1-yl)ethoxy)phenyl)-2-(2-fluoro-2-methylpropyl)-3-methyl-2,3,4,9-tetrahydro-1H-pyrido[3,4-b]indole] | 0.151 | 
18 | C[C@@H]1Cc2c([nH]c3ccccc23)[C@@H](c2c(F)cc(OC[C@H](C)N3CCCC3)cc2F)N1CC(C)(C)F [Example 142, (1R,3R)-1-[2,6-difluoro-4-[(2S)-2-pyrrolidin-1-ylpropoxy]phenyl]-2-(2-fluoro-2-methyl-propyl)-3-methyl-1,3,4,9-tetrahydropyrido[3,4-b]indole] | 0.09 | 
19 | C[C@@H]1Cc2c([nH]c3ccccc23)[C@@H](c2c(F)cc(OCCCN3CC(CF)C3)cc2F)N1CC(C)(C)F [Example 143, (1R,3R)-1-[2,6-difluoro-4-[3-[3-(fluoromethyl)azetidin-1-yl]propoxy]phenyl]-2-(2-fluoro-2-methyl-propyl)-3-methyl-1,3,4,9-tetrahydropyrido[3,4-b]indole] | 0.078 | 
20 | C[C@@H]1Cc2c([nH]c3ccccc23)[C@@H](c2c(F)cc(/C=C/CN3CC(CF)C3)cc2F)N1CC(C)(C)F [Example 144, (1R,3R)-1-[2,6-difluoro-4-[(E)-3-[3-(fluoromethyl)azetidin-1-yl]prop-1-enyl]phenyl]-2-(2-fluoro-2-methyl-propyl)-3-methyl-1,3,4,9-tetrahydropyrido[3,4-b]indole] | 0.144 | 
